These results are taken from ChEMBL document CHEMBL1140668, “Antifungal activity in triterpene glycosides from the sea cucumber Actinopyga lecanora” (2007).

≈ marks a conversion by molar mass, not a printed value.

In one assay the test system is Sporothrix schenckii. Briefly: Antifungal activity against Sporothrix schenckii. It counts as functional.
For assay [1], the system named is Cryptococcus neoformans. Put plainly: Antifungal activity against Cryptococcus neoformans. It counts as functional.
In assay [2] the test system is Candida albicans. Briefly: Antifungal activity against Candida albicans. It counts as functional.
In the next assay the test system is Trichophyton benhamiae. Briefly: Antifungal activity against Trichophyton mentagrophytes. It counts as functional, Arthroderma benhamiae.
The test system of a further assay is Aspergillus fumigatus. Briefly: Antifungal activity against Aspergillus fumigatus. It counts as functional.
For the next assay, the system named is Pichia kudriavzevii. Briefly: Antifungal activity against Candida krusei ATCC 6258. It counts as functional.
Assay [3] relates to Candida albicans. Put plainly: Antifungal activity against Candida albicans MTCC 183. It counts as functional.
In assay [4] the test system is Candida albicans. Briefly: Antifungal activity against Candida albicans ATCC 14053. It counts as functional.
The subject of assay [5] is Candida albicans. Put plainly: Antifungal activity against Candida albicans ATCC 66027. It counts as functional.
For another assay, the system named is Aspergillus terreus. Briefly: Antifungal activity against Aspergillus terreus IMI 235704. It counts as functional.
A further assay deals with Aspergillus flavus. Briefly: Antifungal activity against Aspergillus flavus. It counts as functional.
The subject of the next assay is Candida parapsilosis. Briefly: Antifungal activity against Candida parapsilosis ATCC 22019. It counts as functional. To be noted: Lodderomyces parapsilosis.
A further assay concerns Talaromyces funiculosus. Briefly: Antifungal activity against Penicillium funiculosum MTCC 287. It counts as functional.
In the next assay the test system is Trichophyton rubrum. Briefly: Antifungal activity against Trichophyton rubrum MTCC 296. It counts as functional.
For assay [6], the system named is Cryptococcus neoformans. Briefly: Antifungal activity against Cryptococcus neoformans ATCC 6603. It counts as functional.
The subject of assay [7] is Candida albicans. Briefly: Antifungal activity against Candida albicans ATCC 60193. It counts as functional.
Assay [8] concerns Cryptococcus neoformans. Put plainly: Antifungal activity against Filobasidiella neoformans MTCC 1346. It counts as functional.
The next assay concerns Penicillium ochrochloron. Put plainly: Antifungal activity against Penicillium ochrochloron MTCC 517. It counts as functional.
Assay [9] deals with Candida albicans. Briefly: Antifungal activity against Candida albicans MTCC 227. It counts as functional.
In assay [10] the test system is Candida albicans. Put plainly: Antifungal activity against Candida albicans ATCC 10231. It counts as functional.

As to `CO[C@@H]1[C@@H](O)[C@H](O[C@@H]2[C@@H](O)[C@H](O[C@H]3[C@H](O)[C@@H](O)[C@H](O[C@H]4[C@H](O[C@H]5CC[C@]6(C)C7=C[C@H](O)[C@@]89C(=O)O[C@@](C)(C%10CCC(C)(C)O%10)[C@@]8(O)CC[C@@]9(C)[C@@H]7CC[C@H]6C5(C)C)OC[C@@H](OS(=O)(=O)[O-])[C@@H]4O)O[C@@H]3C)O[C@H](CO)[C@H]2O)O[C@H](CO)[C@H]1O.[Na+]` (some centres not stated) [HOLOTHURIN A], the minimum inhibitory concentration (MIC) (as a rule, the lowest concentration that inhibits growth of the organism) against Sporothrix schenckii was 25 µg/mL; in the assay with Cryptococcus neoformans [1], 25 µg/mL; with Candida albicans [2], 50 µg/mL; in the assay on Trichophyton benhamiae it was 25 µg/mL; against Aspergillus fumigatus it was 50 µg/mL.

With `C[C@H]1O[C@@H](O[C@H]2[C@H](O[C@H]3CC[C@]4(C)C5=C[C@H](O)C67C(=O)O[C@@](C)(C8CCC(C)(C)O8)[C@@]6(O)CC[C@@]7(C)[C@@H]5CCC4C3(C)C)OC[C@@H](OS(=O)(=O)[O-])[C@@H]2O)[C@H](O)[C@@H](O)[C@@H]1O.[Na+]` (some centres not stated) [HOLOTHURIN B], the minimum inhibitory concentration (MIC) against Sporothrix schenckii was found to be 1.56 µg/mL; with Pichia kudriavzevii, 12.5 µg/mL; against Candida albicans [3] it was 25 µg/mL; against Candida albicans [4], 12.5 µg/mL; in the assay with Candida albicans [5], 25 µg/mL; against Aspergillus terreus, 25 µg/mL. Also, the MIC against Aspergillus flavus came out at 12.5 µg/mL; with Candida parapsilosis, 6.25 µg/mL; in the assay on Talaromyces funiculosus, 12.5 µg/mL; against Trichophyton rubrum, 3.12 µg/mL; in the assay with Cryptococcus neoformans [6], 3.12 µg/mL; with Candida albicans [7] it was 12.5 µg/mL. Also, the minimal inhibitory concentration (MIC) against Cryptococcus neoformans [1] was determined as 3.12 µg/mL; against Candida albicans [2] it was 3.12 µg/mL; against Cryptococcus neoformans [8], 6.25 µg/mL; with Penicillium ochrochloron, 12.5 µg/mL; in the assay on Candida albicans [9], 12.5 µg/mL; with Trichophyton benhamiae, 1.56 µg/mL. For the same compound, the figures for the MIC with Candida albicans [10] and against Aspergillus fumigatus were 25 µg/mL and 3.12 µg/mL, respectively.

For `CC(=O)O[C@H]1C[C@@]2(C)C3=CCC4C(C)(C)[C@@H](O[C@@H]5OC[C@@H](O)[C@H](O)[C@H]5O)CC[C@]4(C)C3CCC23C(=O)O[C@@](C)(CCCC(C)C)[C@@H]13` (some centres not stated), the MIC worked out at 25 µg/mL (≈ 38.6 µM) against Sporothrix schenckii; 50 µg/mL (≈ 77.3 µM) against Candida parapsilosis; 25 µg/mL (≈ 38.6 µM) in the assay on Cryptococcus neoformans [1]; 50 µg/mL (≈ 77.3 µM) in the assay on Candida albicans [2]; 25 µg/mL (≈ 38.6 µM) against Trichophyton benhamiae; 50 µg/mL (≈ 77.3 µM) in the assay on Aspergillus fumigatus.

For `OC(Cn1cncn1)(Cn1cncn1)c1ccc(F)cc1F` [FLUCONAZOLE], the MIC with Sporothrix schenckii came to 1 µg/mL (≈ 3.27 µM); with Candida parapsilosis, 1 µg/mL (≈ 3.27 µM); against Cryptococcus neoformans [1], 1 µg/mL (≈ 3.27 µM); against Candida albicans [2], 0.5 µg/mL (≈ 1.63 µM); against Trichophyton benhamiae it was 2 µg/mL (≈ 6.53 µM); in the assay with Aspergillus fumigatus, 2 µg/mL (≈ 6.53 µM).
